According to US9238639B2, “Aromatic ring compound” (TAKEDA PHARMACEUTICAL COMPANY LIMITED, priority 2012, dated 2016):

Target: T1, human GOAT (Homo sapiens, UniProt Q96T53)
T1 construct: made in house; host or cells: Sf9 insect cells (BacToBac baculovirus, pFastBac1 vector); microsome fraction
T1 sequence (Q96T53 1-435): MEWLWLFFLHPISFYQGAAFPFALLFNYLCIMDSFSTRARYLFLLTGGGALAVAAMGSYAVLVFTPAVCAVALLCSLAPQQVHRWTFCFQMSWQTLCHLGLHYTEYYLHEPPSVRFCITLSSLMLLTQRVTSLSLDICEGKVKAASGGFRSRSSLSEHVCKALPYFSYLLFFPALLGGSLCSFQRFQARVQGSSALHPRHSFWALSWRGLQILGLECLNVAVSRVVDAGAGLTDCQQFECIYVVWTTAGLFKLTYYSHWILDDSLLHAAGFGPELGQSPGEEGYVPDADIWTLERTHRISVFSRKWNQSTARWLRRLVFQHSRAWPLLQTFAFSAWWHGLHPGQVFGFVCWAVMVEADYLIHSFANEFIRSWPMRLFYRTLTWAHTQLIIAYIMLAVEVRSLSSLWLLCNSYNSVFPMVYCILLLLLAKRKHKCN
Assay: GOAT enzyme activity measurement by HTRF method (human GOAT-expressing microsome fraction)
Type: biochemical
Settings: 10 μM compound; human GOAT-expressing Sf9 microsome fraction; octanoyl-CoA and Ghrelin-biotin substrates; 0% control without compound, 100% control without enzyme
Experimental: Human GOAT (Accession NO: EU518495) cDNA was amplified by PCR including reaction of (1) 98° C., 1 min, (2) 35 repeats of 98° C., 10 sec·65° C., 15 sec·72° C., 80 sec, and (3) 72° C., 5 min, using human stomach cDNA library (Takara Bio) as a template and Pyrobest DNA Polymerase (Takara Bio). The amplified fragment was treated with restriction enzymes, inserted into Stu I/Not I sites of pFastBacl (Invitrogen) by using Ligation High (TOYOBO), and transfected into ECOS JM109 (Nippon Gene) to construct pFB/hGOAT.
Production of Baculovirus and Preparation of Insect Cell Microsome Fraction
For preparation of baculovirus from pFB/hGOAT, BacToBac baculovirus expression system (Invitrogen) was used. The virus titer was measured by Real-Time PCR using SYBR Green (Takara Bio). Sf9 cells were infected with the obtained baculovirus at Multiplicity of Infection (MOI)=0.2, and cultured for 70 hr. The Sf9 cells were recovered, suspended in a suspension buffer (TBS (0.3 M NaCl), 1 mM DTT, 1 mM EDTA, Complete (Roche) (1 tablet/50 mL)), and the cells were disrupted twice on ice at 20000 rpm, 30 sec using a polytron homogenizer. The cell disruption solution was centrifuged at 1000 rpm for 10 min at 4° C., the supernatant was further ultracentrifuged at 40000 rpm for 30 min at 4° C. and the precipitate was recovered. The obtained precipitate was suspended in the suspension buffer used above to give a human GOAT-expressing microsome fraction. The protein level was measured using BCA Protein assay Reagent (PIERCE).
Enzyme Activity Measurement by HTRF Method
A compound solution (2 μL) diluted with an assay buffer containing 50 mM Tris-HCl (pH 7.5), 0.5% TWEEN20, and Complete to 15% DMSO and 90 μg/mL human GOAT-expressing microsome fraction (2 μL) were incubated at room temperature for 20 min, after which a substrate mixed solution (2 μL) containing 30 μM octanoyl-CoA (CHEM-IMPLEX) and 3 μM Ghrelin-biotin ([…]epsilon aminocaproic acid-biotin (Greiner Coutom synthesis)) was added to 384 white small volume plate (Greiner). After reaction for 20 min, 2 μL of citrate buffer (pH3) (mixed solution of 0.1 M citric acid (39.8 mL) and 0.2 M Na2HPO4 (10.2 mL)), 2 μL of 25 nM anti-active ghrelin antibody (produced in mouse), 5 μL of Eu(K)-Anti Mouse IgG Pab (Cis Bio) 100-fold diluted with HTRF detection buffer (Cis Bio) and 5 μL of streptavidin-Xlent (Cis Bio) 66.6-fold diluted with HTRF detection buffer (Cis Bio) were added. After incubation at room temperature for 1 hr or longer, the fluorescence values at 620 nm and 665 nm were measured by Envision (PerkinElmer). The data was calculated [(665 nm signal/620 nm signal)×10^4], and the inhibitory activity against human GOAT was shown by the data where 0% control was without compound, and 100% control was without enzyme.

Compound	inhibition at 10 µM
COC(=O)Cc1csc2cc(OCc3cc(C(F)(F)F)nn3C)cc(Cl)c12 [Example 21, Methyl(4-chloro-6-((1-methyl-3-(trifluoromethyl)-1H-pyrazol-5-yl)methoxy)-1-benzothiophen-3-yl)acetate]	100%
COC(=O)Cc1csc2c(F)c(OCc3ccc(C(F)(F)F)nc3C)cc(Cl)c12 [Example 39, Methyl(4-chloro-7-fluoro-6-((2-methyl-6-(trifluoromethyl)pyridin-3-yl)methoxy)-1-benzothiophen-3-yl)acetate]	88.6%
COC(=O)Cc1csc2cc(OCc3ccc(C(F)(F)F)nc3C)cc(Cl)c12 [Example 15, Methyl(4-chloro-6-((2-methyl-6-(trifluoromethyl)pyridin-3-yl)methoxy)-1-benzothiophen-3-yl)acetate]	91.6%
Cc1nc(C(F)(F)F)ccc1COc1cc(C)c2c(CC(=O)O)csc2c1C [Example 24, (4,7-Dimethyl-6-((2-methyl-6-(trifluoromethyl)pyridin-3-yl)methoxy)-1-benzothiophen-3-yl)acetic acid]	105%
COC(=O)Cc1csc2cc(OCc3cc(C)nn3C)cc(C)c12 [Example 7, Methyl(6-((1,3-dimethyl-1H-pyrazol-5-yl)methoxy)-4-methyl-1-benzothiophen-3-yl)acetate]	94.7%
COC(=O)Cc1csc2c(F)c(OCc3cc(C(F)(F)F)nn3C)cc(Cl)c12 [Example 37, Methyl(4-chloro-7-fluoro-6-((1-methyl-3-(trifluoromethyl)-1H-pyrazol-5-yl)methoxy)-1-benzothiophen-3-yl)acetate]	98.9%
Cc1nc(C(F)(F)F)ccc1COc1cc(Cl)c2c(CC(=O)O)c(C)sc2c1 [Example 309, (4-Chloro-2-methyl-6-((2-methyl-6-(trifluoromethyl)pyridin-3-yl)methoxy)-1-benzothiophen-3-yl)acetic acid]	103%
CCOC(=O)Cc1csc2cc(OCc3ccc(C)nc3C)ccc12 [Example 3, Ethyl(6-((2,6-dimethylpyridin-3-yl)methoxy)-1-benzothiophen-3-yl)acetate]	92.8%
Cc1ccc(/C=C/c2ccc3c(CC(=O)O)csc3c2)c(C)n1 [Example 183, (6-((E)-2-(2,6-dimethylpyridin-3-yl)vinyl)-1-benzothiophen-3-yl)acetic acid]	83.1%
COC(=O)Cc1csc2c(Cl)c(OCc3ccc(C(F)(F)F)nc3C)cc(Cl)c12 [Example 29, Methyl(4,7-dichloro-6-((2-methyl-6-(trifluoromethyl)pyridin-3-yl)methoxy)-1-benzothiophen-3-yl)acetate]	88.1%
COC(=O)Cc1coc2c(C)c(OCc3ccc(Cl)cc3Cl)cc(C)c12 [Example 45, Methyl(6-((2,4-dichlorobenzyl)oxy)-4,7-dimethyl-1-benzofuran-3-yl)acetate]	68.7%
O=C(O)C[C@@H]1COc2cc(OCc3ccc(Cl)cc3Cl)ccc21 [Example 262, ((3S)-6-((2,4-Dichlorobenzyl)oxy)-2,3-dihydro-1-benzofuran-3-yl)acetic acid]	93%
Cc1cc(OCc2cc(C(F)(F)F)nn2C)c(F)c2scc(CC(=O)O)c12 [Example 34, (7-Fluoro-4-methyl-6-((1-methyl-3-(trifluoromethyl)-1H-pyrazol-5-yl)methoxy)-1-benzothiophen-3-yl)acetic acid]	104%
Cc1ccc(COc2cc(Cl)c3c(CC(=O)O)csc3c2)c(C)n1 [Example 14, (4-Chloro-6-((2,6-dimethylpyridin-3-yl)methoxy)-1-benzothiophen-3-yl)acetic acid]	107%
Cc1ccc(COc2cc(C)c3c(CC(=O)O)coc3c2C)c(C)n1 [Example 44, (6-((2,6-Dimethylpyridin-3-yl)methoxy)-4,7-dimethyl-1-benzofuran-3-yl)acetic acid]	102%
Cc1nc(C(F)(F)F)ncc1COc1ccc2c(CC(=O)O)csc2c1 [Example 137, (6-((4-Methyl-2-(trifluoromethyl)pyrimidin-5-yl)methoxy)-1-benzothiophen-3-yl)acetic acid]	97.3%
O=C(O)CC1CS(=O)(=O)c2cc(OCc3ccc(Cl)cc3Cl)ccc21 (stereo not shown) [Example 52, (6-((2,4-Dichlorobenzyl)oxy)-1,1-dioxido-2,3-dihydro-1-benzothiophen-3-yl)acetic acid]	79%
COC(=O)Cc1csc2cc(OCc3ccc(C)nc3C)cc(Cl)c12 [Example 13, Methyl(4-chloro-6-((2,6-dimethylpyridin-3-yl)methoxy)-1-benzothiophen-3-yl)acetate]	96.5%
COC(=O)Cc1c(C)sc2cc(OCc3ccc(C(F)(F)F)nc3C)cc(Cl)c12 [Example 308, Methyl (4-chloro-2-methyl-6-((2-methyl-6-(trifluoromethyl)pyridin-3-yl)methoxy)-1-benzothiophen-3-yl)acetate]	51.5%
Cn1nc(C(F)(F)F)cc1COc1cc(C(F)(F)F)c2c(CC(=O)O)csc2c1 [Example 32, (6-((1-Methyl-3-(trifluoromethyl)-1H-pyrazol-5-yl)methoxy)-4-(trifluoromethyl)-1-benzothiophen-3-yl)acetic acid]	103%
COC(=O)Cc1csc2c(F)c(OCc3cc(C(F)(F)F)nn3C)cc(C)c12 [Example 33, Methyl(7-fluoro-4-methyl-6-((1-methyl-3-(trifluoromethyl)-1H-pyrazol-5-yl)methoxy)-1-benzothiophen-3-yl)acetate]	96.1%
CCOC(=O)CNC(=O)Cc1csc2cc(OCc3ccc(Cl)cc3Cl)ccc12 [Example 53, Ethyl N-((6-((2,4-dichlorobenzyl)oxy)-1-benzothiophen-3-yl)acetyl)glycinate]	56%
Cc1cc(OCc2ccc(Cl)cc2Cl)cc2scc(CC(=O)O)c12 [Example 6, (6-((2,4-Dichlorobenzyl)oxy)-4-methyl-1-benzothiophen-3-yl)acetic acid]	103%
Cc1nc(C(F)(F)F)ccc1COc1cc(Cl)c2c(CC(=O)O)csc2c1 [Example 16, (4-Chloro-6-((2-methyl-6-(trifluoromethyl)pyridin-3-yl)methoxy)-1-benzothiophen-3-yl)acetic acid]	101%
Cc1ccc(COc2cc(C)c3c(c2C)OCC3CC(=O)O)c(C)n1 (stereo not shown) [Example 289, (6-((2,6-Dimethylpyridin-3-yl)methoxy)-4,7-dimethyl-2,3-dihydro-1-benzofuran-3-yl)acetic acid]	94.8%
Cc1nc(C(F)(F)F)ccc1COc1ccc2c(CC(=O)O)csc2c1 [Example 135, (6-((2-Methyl-6-(trifluoromethyl)pyridin-3-yl)methoxy)-1-benzothiophen-3-yl)acetic acid]	93.1%
COCC1(C(=O)O)COc2cc(OCc3ccc(Cl)cc3Cl)ccc21 (stereo not shown) [Example 281, 6-((2,4-Dichlorobenzyl)oxy)-3-(methoxymethyl)-2,3-dihydro-1-benzofuran-3-carboxylic acid]	85%
CCS(=O)(=O)NC(=O)Cc1csc2cc(OCc3ccc(Cl)cc3Cl)ccc12 [Example 138, 2-(6-((2,4-Dichlorobenzyl)oxy)-1-benzothiophen-3-yl)-N-(ethylsulfonyl)acetamide]	83.2%
